Results from patent US5593970A, “Heterocyclic anthracycline analogs” (priority 1994, dated 1997).
Where two headings read alike, the source gives them in different places.

Assays:
Ovarian = assay: NCI assay, average per cancer type; details: Homo sapiens; for CC50: 48 h, read-out: Average LOG10 LC50; for GI50: read-out: Average LOG10 GI50
Leukemia = assay: NCI assay, average per cancer type; details: for CC50: 48 h, read-out: Average LOG10 LC50; for GI50: read-out: Average LOG10 GI50
Melanoma = assay: NCI assay, average per cancer type; details: Homo sapiens; for CC50: read-out: Average LOG10 LC50; for GI50: read-out: Average LOG10 GI50
Colon = assay: NCI assay, average per cancer type; details: Homo sapiens; for CC50: 48 h, read-out: Average LOG10 LC50; for GI50: read-out: Average LOG10 GI50
CNS = assay: NCI assay, average per cancer type; details: Homo sapiens; for CC50: 48 h, read-out: Average LOG10 LC50; for GI50: read-out: Average LOG10 GI50
Renal = assay: NCI assay, average per cancer type; details: Homo sapiens; for CC50: 48 h, read-out: Average LOG10 LC50; for GI50: read-out: Average LOG10 GI50
SKVLB = assay: Microculture tetrazolium assay; format: cell-based; details: for VLB/OV3: IC50 ratio SKVLB/SKOV3; for IC50: SKVLB, read-out: IC50
tumor cell lines = assay: NCI sulforhodamine B assay, all cell lines; details: for CC50 / IC100 / GI50: Homo sapiens; for CC50 / IC100: 48 h; for CC50: read-out: Log10 LC50, Mean / MG-MID, all cell lines (converted); for IC100: read-out: Log10 TGI, Mean / MG-MID, all cell lines; for GI50: read-out: Log10 GI50, Mean / MG-MID, all cell lines (converted)
NSC Lung = assay: NCI assay, average per cancer type; details: Homo sapiens; for CC50: 48 h, read-out: Average LOG10 LC50; for GI50: read-out: Average LOG10 GI50
SKOV3 = assay: Microculture tetrazolium assay; format: cell-based; details: Homo sapiens, SK-OV-3, SKOV3; read-out: IC50
SC Lung = assay: NCI assay, average per cancer type; details: Homo sapiens; for CC50: 48 h, read-out: Average LOG10 LC50; for GI50: read-out: Average LOG10 GI50
solid tumors = assay: NCI assay, mean potency in solid tumors; details: Homo sapiens; for GI50: read-out: Average LOG10 GI50, Mean Potency in solid tumors; for CC50: 48 h, read-out: Average LOG10 LC50, Mean Potency in solid tumors
LOX = assay: Microculture tetrazolium assay; format: cell-based
T47D = assay: Microculture tetrazolium assay; format: cell-based; details: Homo sapiens, read-out: IC50
HT29 = assay: Microculture tetrazolium assay; format: cell-based; details: Homo sapiens, HT-29, HT29; read-out: IC50

## CCOC(=O)C1CC2=C(C(=O)c3c(c(O)c4ccccc4c3OC)C2=O)C(O[C@H]2C[C@H](NC(=O)C(F)(F)F)[C@H](O)[C@H](C)O2)O1 (mixture of isomers) [BCH-689, (1'S,1R,3S) and (1'S,1S,3R) Ethyl (6-hydroxy-11-methoxy-5,12-dioxo-1-(3,-trifluoroacetamido-1-daunosaminyl)-3,4,5,12-tetrahydroanthraceno[2,3-c]pyran-3-yl)formate]
Ovarian
  CC50: 42.7 µM
  GI50: 11.5 µM
Leukemia
  CC50: < 100 µM
  GI50: 15500 nM
Melanoma; 48 h
  CC50: 41.7 µM
Melanoma
  GI50: 12600 nM
Colon
  CC50: 38.9 µM
  GI50: 11200 nM
CNS
  CC50: 40.7 µM
  GI50: 12.9 µM
Renal
  CC50: 37.2 µM
  GI50: 11.2 µM
SKVLB
  VLB/OV3: 1.06
  IC50: 4.02 µM
Tumor cell lines
  CC50: 45.7 µM
  IC100: 26.3 µM
  GI50: 12600 nM
NSC Lung
  CC50: 41.7 µM
  GI50: 13.5 µM
SKOV3
  IC50: 3.79 µM
SC Lung
  CC50: 42.7 µM
  GI50: 11500 nM
Solid tumors
  GI50: 12000 nM

## CCOC(=O)[C@@H]1CC2=C(C(=O)c3c(cc4ccccc4c3OC(C)=O)C2=O)[C@@H](O)O1 (relative stereo) [BCH-657, Ethyl[1-hydroxy-11-acetoxy-5,12-dioxo-3,4-5,12-tetrahydroanthraceno(2,3-C)pyran-3-yl]formate]
Ovarian
  CC50: 17.4 µM
  GI50: 1.7 µM
Leukemia
  CC50: > 100 µM
  GI50: 437 nM
LOX
  IC50: 9.3 µM
Melanoma
  GI50: 1350 nM
Colon
  CC50: 13.5 µM
  GI50: 794 nM
T47D
  IC50: 13.1 µM
CNS
  CC50: 13.2 µM
  GI50: 1.86 µM
Renal
  CC50: 12 µM
  GI50: 1.32 µM
SKVLB
  VLB/OV3: 0.99
  IC50: 6.75 µM
Tumor cell lines
  antiproliferative and cytotoxic activity in words: strong antiproliferative (GI50) and potent cytotoxic (LC50) activities
  CC50: 26.3 µM
  IC100: 4.07 µM
  GI50: 1170 nM
NSC Lung
  CC50: 11.5 µM
  GI50: 1.12 µM
SKOV3
  IC50: 6.8 µM
SC Lung
  CC50: > 100 µM
  GI50: 1260 nM
Solid tumors
  GI50: 1290 nM
HT29
  IC50: 2.28 µM

## CCOC(=O)C1Cc2c(O)c3c(c(O)c2CO1)C(=O)c1ccccc1C3=O (centres unmarked) [BCH-650]
Ovarian
  CC50: > 100 µM
  GI50: > 100 µM
Leukemia
  CC50: > 100 µM
  GI50: 61700 nM
LOX; read-out: IC50
  IC50: 100 µM
Melanoma; 48 h
  GI50: > 100000 nM
  CC50: > 100 µM
Colon
  CC50: > 100 µM
  GI50: > 100000 nM
T47D
  IC50: 100 µM
CNS
  CC50: > 100 µM
  GI50: 45.7 µM
Renal
  CC50: > 100 µM
  GI50: 52.5 µM
SKVLB
  IC50: 100 µM
Tumor cell lines
  CC50: 100 µM
  IC100: 100 µM
  GI50: 79400 nM
NSC Lung
  CC50: > 100 µM
  GI50: > 100 µM
SKOV3
  IC50: 100 µM
SC Lung
  CC50: > 100 µM
  GI50: > 100000 nM
Solid tumors
  CC50: > 100 µM
  GI50: 52500 nM
HT29
  IC50: 91.1 µM

## COC(=O)[C@@H]1CC2=C(C(=O)c3cc4ccccc4cc3C2=O)[C@@H](O[C@H]2C[C@H](NC(=O)C(F)(F)F)[C@H](O)[C@H](C)O2)O1 [BCH-671]
Ovarian
  CC50: 33.9 µM
  GI50: 3.63 µM
Leukemia
  CC50: > 100 µM
  GI50: 1820 nM
LOX; read-out: IC50
  IC50: 2.61 µM
Melanoma; 48 h
  CC50: 21.4 µM
Melanoma
  GI50: 2090 nM
Colon
  CC50: 15.8 µM
  GI50: 1910 nM
T47D
  IC50: 2.86 µM
CNS
  CC50: 42.7 µM
  GI50: 4.27 µM
Renal
  CC50: 23.4 µM
  GI50: 2.82 µM
SKVLB
  VLB/OV3: 1.32
  IC50: 6.19 µM
Tumor cell lines
  CC50: 29.5 µM
  IC100: 7.76 µM
  GI50: 2880 nM
NSC Lung
  CC50: 30.2 µM
  GI50: 4.57 µM
SKOV3
  IC50: 4.69 µM
SC Lung
  CC50: 55 µM
  GI50: 2510 nM
Solid tumors
  CC50: 29.5 µM
  GI50: 2950 nM
HT29
  IC50: 4.23 µM

## COC(=O)[C@@H]1CC2=C(C(=O)c3cc4ccccc4cc3C2=O)[C@H](O[C@H]2C[C@H](NC(=O)C(F)(F)F)[C@H](O)[C@H](C)O2)O1 [BCH-672]
Ovarian
  CC50: 25.7 µM
  GI50: 3.16 µM
Leukemia
  CC50: 42.7 µM
  GI50: 1290 nM
Melanoma; 48 h
  CC50: 21.4 µM
Melanoma
  GI50: 1550 nM
Colon
  CC50: 28.2 µM
  GI50: 1660 nM
CNS
  CC50: 31.6 µM
  GI50: 4.68 µM
Renal
  CC50: 24 µM
  GI50: 4.17 µM
Tumor cell lines
  CC50: 26.9 µM
  IC100: 7.94 µM
  GI50: 2630 nM
NSC Lung
  CC50: 27.5 µM
  GI50: 3.55 µM
SC Lung
  CC50: 39.8 µM
  GI50: 2040 nM
Solid tumors
  CC50: 27.5 µM
  GI50: 2750 nM

## CCOC(=O)[C@@H]1CC2=C(C(=O)c3c(cc4ccccc4c3O)C2=O)[C@@H](O[C@H]2C[C@H](NC(=O)C(F)(F)F)[C@H](O)[C@H](C)O2)O1 [BCH-673]
Ovarian
  CC50: 21.9 µM
  GI50: 1.55 µM
Leukemia
  CC50: > 100 µM
  GI50: 1070 nM
Melanoma; 48 h
  CC50: 13.5 µM
Melanoma
  GI50: 1480 nM
Colon
  CC50: 34.7 µM
  GI50: 794 nM
CNS
  CC50: 26.9 µM
  GI50: 2.24 µM
Renal
  CC50: 11 µM
  GI50: 1.58 µM
Tumor cell lines
  CC50: 20.9 µM
  IC100: 4.47 µM
  GI50: 1480 nM
NSC Lung
  CC50: 21.9 µM
  GI50: 1.74 µM
SC Lung
  CC50: 36.3 µM
  GI50: 1820 nM
Solid tumors
  CC50: 21.9 µM
  GI50: 1550 nM

## COC(=O)[C@@H]1CC2=C(C(=O)c3cc4ccccc4c(O)c3C2=O)[C@@H](O[C@H]2C[C@H](NC(=O)C(F)(F)F)[C@H](O)[C@H](C)O2)O1 [BCH-683]
Ovarian
  CC50: 15.8 µM
  GI50: 2.09 µM
Leukemia
  CC50: < 100 µM
  GI50: 1820 nM
Melanoma; 48 h
  CC50: 7.08 µM
Melanoma
  GI50: 1120 nM
Colon
  CC50: 10.5 µM
  GI50: 1290 nM
CNS
  CC50: 31.6 µM
  GI50: 3.39 µM
Renal
  CC50: 26.3 µM
  GI50: 3.16 µM
Tumor cell lines
  CC50: 21.9 µM
  IC100: 5.75 µM
  GI50: 2140 nM
NSC Lung
  CC50: 28.2 µM
  GI50: 3.02 µM
SC Lung
  CC50: 8.32 µM
  GI50: 1860 nM
Solid tumors
  CC50: 15.5 µM
  GI50: 2090 nM

## CC(=O)C1Cc2c(O)c3c(c(O)c2CO1)C(=O)c1ccccc1C3=O (centres unmarked) [BCH-688, Methyl-(5,12-dihydroxy-6,11-dioxo-3,4,6,11-tetrahydroanthraceno-[2,3-c]pyran-3-yl)ketone]
Ovarian
  CC50: > 100 µM
  GI50: 75.9 µM
Leukemia
  CC50: > 100 µM
  GI50: 36300 nM
LOX; read-out: IC50
  IC50: 100 µM
Melanoma; 48 h
  CC50: > 100 µM
Melanoma
  GI50: > 100000 nM
Colon
  CC50: > 100 µM
  GI50: > 100000 nM
T47D
  IC50: 100 µM
CNS
  CC50: > 100 µM
  GI50: 53.7 µM
Renal
  CC50: > 100 µM
  GI50: > 100 µM
SKVLB
  IC50: 100 µM
Tumor cell lines
  CC50: 100 µM
  IC100: 97.7 µM
  GI50: 75900 nM
NSC Lung
  CC50: > 100 µM
  GI50: > 100 µM
SKOV3
  IC50: 100 µM
SC Lung
  CC50: > 100 µM
  GI50: > 100000 nM
Solid tumors
  CC50: > 100 µM
  GI50: 52500 nM
HT29
  IC50: 100 µM
